From patent publication EP4748841A1, “BICYCLO[5,6] IMIDAZOLE PYRIMIDONE DERIVATIVE AND PREPARATION METHOD THEREFOR AND USE THEREOF” (Shujing Biopharma Co., Ltd, priority 2023, dated 2025)

target: T1, Lp-PLA2 (Homo sapiens, UniProt Q13093); experiment: Inhibitory activity against Lp-PLA2 in human plasma (Thio-PAF assay); assay type: biochemical; details: 2-thio-PAF substrate, 30 min pre-incubation
T1 construct: from tissue; host or cells: pooled (mixed) human plasma
T1 sequence (Q13093 22-441): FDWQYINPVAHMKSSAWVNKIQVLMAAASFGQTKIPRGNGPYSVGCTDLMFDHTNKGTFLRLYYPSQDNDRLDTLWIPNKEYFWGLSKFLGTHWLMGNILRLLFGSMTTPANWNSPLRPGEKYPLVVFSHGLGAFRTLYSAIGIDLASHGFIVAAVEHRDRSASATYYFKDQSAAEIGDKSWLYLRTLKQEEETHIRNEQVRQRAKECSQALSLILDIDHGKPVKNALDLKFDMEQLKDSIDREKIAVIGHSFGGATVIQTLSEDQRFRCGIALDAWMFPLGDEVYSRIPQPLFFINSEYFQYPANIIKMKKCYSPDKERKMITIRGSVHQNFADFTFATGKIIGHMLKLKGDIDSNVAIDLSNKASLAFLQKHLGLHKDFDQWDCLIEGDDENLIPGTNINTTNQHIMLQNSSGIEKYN
From the text: The literature reports that 2-Thio-PAF, commercially available from Cayman Chemical, is a substrate for PAF hydrolase (PAF-AH). After its cleavage by PAF-AH, the free thiol released at the sn-2 position can react with 7-diethylamino-3-(4'-maleimidophenyl)-4-methylcoumarin (CPM), resulting in increased fluorescence. Thus, Lp-PLA2 inhibitors can prevent this cleavage, and no increase in fluorescence is observed. In this experiment, the human plasma assay employed the same thioester analog of PAF as described in the recombinant human Lp-PLA2 assay described above.
• (1) The Thio-PAF assay was performed as a quenched 75 µL assay. A compound source plate was prepared by preparing 1:4 (v/v) serial diluents of the compounds in pure DMSO in a 96-well microplate. • (2) 1 µL of each test compound from the compound source plate was transferred into a 96-well microplate containing 40 µL of pre-thawed mixed human plasma by a Rainin multichannel pipette, and the plasma was thawed at room temperature and centrifuged at 2000 rpm for 10 min. The plate was shaken on a microplate shaker for 2 min for uniform mixing. • (3) After 30 min of pre-incubation at room temperature, 10 µL of a substrate solution was added sequentially to the 96-well microplate described above by a Rainin multichannel pipette. The substrate solution contained 2.5 mM 2-thio-PAF (from an ethanol mother liquor), 32 µM CPM (from a DMSO mother liquor), and 3.2 mM N-ethylmaleimide (freshly prepared in DMSO for each experiment) in assay buffer (pH 7.4) consisting of 50 mM HEPES, 150 mM NaCl, and 1 mM CHAPS. After the addition was completed, the plate was immediately shaken for 2 min, and the reaction time for the substrate was 4 min in total. After the reaction was completed, the reaction was quenched with 25 µL of an aqueous solution of 5% trifluoroacetic acid. The plate was centrifuged at 1000 rpm for 1 min. • (4) The FLINT signal (FLINT380/480) was read using a microplate reader. • (5) IC50 data, curve fitting, and QC analyses were performed using GraphPad Prism 8.0 and Excel.

SMILES | IC50 [nM]
O=c1nc(OCc2ccc(Oc3ccccc3)cc2)cc2n1CC1CCN21 (stereo not shown) [Example 12, 3-((4-Phenoxybenzyl)oxy)-6,7,7a,8-tetrahydro-1H-azeto[1',2':3,4]imidazo[1,2-c]pyrimidin-1-one] | 2090
Cn1cc(Oc2c(F)cc(COc3cc4n(c(=O)n3)CC3CCN43)cc2F)cn1 (stereo not shown) [Example 45] | 203
Cc1ccc(COc2cc3n(c(=O)n2)CC2CCN32)cc1 (stereo not shown) [Example 8, 3-((4-Methylbenzyl)oxy)-6,7,7a,8-tetrahydro-1H-azeto[1',2':3,4]imidazo[1,2-c]pyrimidin-1-one] | 2430
O=c1nc(OCc2ccc(F)c(F)c2)cc2n1CC1CCN21 (stereo not shown) [Example 54, 3-((3,4-Difluorobenzyl)oxy)-6,7,7a,8-tetrahydro-1H-azeto[1',2':3,4]imidazo[1,2-c]pyrimidin-1-one] | 30.3
O=c1nc(OCc2ccc(Oc3ccc(F)c(C(F)(F)F)c3)nc2)cc2n1CC1CCN21 (stereo not shown) [Example 41, 3-((6-(4-Fluoro-3-(trifluoromethyl)phenoxy)pyridin-3-yl)methoxy)-6,7,7a,8-tetrahydro-1H-azeto[1',2':3,4]imidazo[1,2-c]pyrimidin-1-one] | 292
Cc1ccc(Oc2c(F)cc(COc3cc4n(c(=O)n3)CC3CCN43)cc2F)cn1 (stereo not shown) [Example 36] | 35.8
O=c1nc(OCc2ccc(F)cc2)cc2n1CC1CCN21 (stereo not shown) [Example 7, 3-((4-Fluorobenzyl)oxy)-6,7,7a,8-tetrahydro-1H-azeto[1',2':3,4]imidazo[1,2-c]pyrimidin-1-one] | 68.7
N#Cc1cc(COc2cc3n(c(=O)n2)CC2CCN32)ccc1Oc1ccc(C(F)(F)F)cn1 (stereo not shown) [Example 21, 5-(((1-Oxo-6,7,7a,8-tetrahydro-1H-azeto[1',2':3,4]imidazo[1,2-c]pyrimidin-3-yl)oxy)methyl)-2-((5-(trifluoromethyl)pyridin-2-yl)oxy)benzonitrile] | 200
N#Cc1ccc(COc2cc3n(c(=O)n2)CC2CCN32)cc1 (stereo not shown) [Example 28, 3-((4-Cyanobenzyl)oxy)-6,7,7a,8-tetrahydro-1H-azeto[1',2':3,4]imidazo[1,2-c]pyrimidin-1-one] | 892
O=c1nc(OCc2cnc(Oc3ccc(Cl)c(C(F)(F)F)c3)c(F)c2)cc2n1CC1CCN21 (stereo not shown) [Example 38, 3-((6-(4-Chloro-3-(trifluoromethyl)phenoxy)-5-fluoropyridin-3-yl)methoxy)-6,7,7a,8-tetrahydro-1H-azeto[1',2':3,4]imidazo[1,2-c]pyrimidin-1-one] | 56.3
O=c1nc(OCc2cc(F)c(Oc3ccnc(C(F)(F)F)c3)c(F)c2)cc2n1C[C@@H]1CCN21 [Example 34-S] | 52.3
Cc1ccc(Oc2c(F)cc(COc3cc4n(c(=O)n3)C[C@@H]3CCN43)cc2F)cn1 [Example 36-S] | 96.4
O=c1nc(OCc2ccc(Oc3ccccc3)nc2)cc2n1CC1CCN21 (stereo not shown) [Example 16, 3-((6-Phenoxypyridin-3-yl)methoxy)-6,7,7a,8-tetrahydro-1H-azeto[1',2':3,4]imidazo[1,2-c]pyrimidin-1-one] | 2740
N#Cc1cc(Oc2ccc(COc3cc4n(c(=O)n3)CC3CCN43)cc2F)ccc1Cl (stereo not shown) [Example 53, 2-Chloro-5-(2-fluoro-4-(((1-oxo-6,7,7a,8-tetrahydro-1H-azeto[1',2':3,4]imidazo[1,2-c]pyrimidin-3-yl)oxy)methyl)phenoxy)benzonitrile] | 107

Stronger by IC50, values ahead:

IC50 [nM] | SMILES
12.6 | O=c1nc(OCc2ccc(Oc3ccc(Cl)c(C(F)(F)F)c3)cc2)cc2n1CC1CCN21 (stereo not shown) [Example 50, 3-((4-(4-Chloro-3-(trifluoromethyl)phenoxy)benzyl)oxy)-6,7,7a,8-tetrahydro-1H-azeto[1',2':3,4]imidazo[1,2-c]pyrimidin-1-one]
4.3 | O=c1nc(OCc2cc(F)c(Oc3ccc(C(F)(F)F)nc3)c(F)c2)cc2n1CC1CCN21 (stereo not shown) [Example 52]
21.2 | O=c1nc(OCc2ccc(Oc3cnc(C(F)(F)F)nc3)c(F)c2)cc2n1CC1CCN21 (stereo not shown) [Example 51]
25.6 | Cc1ncc(Oc2c(F)cc(COc3cc4n(c(=O)n3)CC3CCN43)cc2F)cn1 (stereo not shown) [Example 44]
3.9 | O=c1nc(OCc2ccc(Oc3ccc(C(F)(F)F)nc3)c(F)c2)cc2n1CC1CCN21 (stereo not shown) [Example 1]
4.6 | N#Cc1cc(COc2cc3n(c(=O)n2)CC2CCN32)ccc1Oc1cccc(C(F)(F)F)c1 (stereo not shown) [Example 22, 5-(((1-Oxo-6,7,7a,8-tetrahydro-1H-azeto[1',2':3,4]imidazo[1,2-c]pyrimidin-3-yl)oxy)methyl)-2-(3-(trifluoromethyl)phenoxy)benzonitrile]
15.9 | Cc1ccc(Oc2c(F)cc(COc3cc4n(c(=O)n3)C[C@H]3CCN43)cc2F)cn1 [Example 36-R]
4.3 | O=c1nc(OCc2ccc(Oc3ccnc(C(F)(F)F)c3)c(F)c2)cc2n1CC1CCN21 (stereo not shown) [Example 23]
3.9 | N#Cc1cc(COc2cc3n(c(=O)n2)CC2CCN32)ccc1Oc1ccc(Cl)c(C(F)(F)F)c1 (stereo not shown) [Example 39, 2-(4-Chloro-3-(trifluoromethyl)phenoxy)-5-(((1-oxo-6,7,7a,8-tetrahydro-1H-azeto[1',2':3,4]imidazo[1,2-c]pyrimidin-3-yl)oxy)methyl)benzonitrile]
5.2 | O=c1nc(OCc2cc(F)c(Oc3ccnc(C(F)(F)F)c3)c(F)c2)cc2n1CC1CCN21 (stereo not shown) [Example 34]
12.7 | O=c1nc(OCc2ccc(Oc3ccc(F)c(F)c3)c(F)c2)cc2n1CC1CCN21 (stereo not shown) [Example 24, 3-((4-(3,4-Difluorophenoxy)-3-fluorobenzyl)oxy)-6,7,7a,8-tetrahydro-1H-azeto[1',2':3,4]imidazo[1,2-c]pyrimidin-1-one]
